Data published in patent US20230242496A1, “SOX11 INHIBITORS FOR TREATING MANTLE CELL LYMPHOMA” (Icahn School of Medicine At Mount Sinai, priority 2020, published 2023).

Columns and labels:
(His)6-SOX11-DBD protein = molecular target: T1, (His)6-SOX11-DBD protein (Homo sapiens, UniProt P35716); assay: Surface Plasmon Resonance (SPR) assay; assay type: binding; conditions: immobilized recombinant (His)6-SOX11-DBD, 25° C., compounds 5-40 μM, mean of three experiments
T1 construct: Recombinant (His)6-SOX11-DBD protein was immobilized
T1 sequence (P35716 49-117 limits assumed): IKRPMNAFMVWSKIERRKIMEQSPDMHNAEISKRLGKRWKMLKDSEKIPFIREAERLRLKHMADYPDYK

Jeko-1 (SOX11+) = assay: Cell viability assay (CellTiter-Blue resazurin reduction); assay type: cell-based; conditions: JeKo-1 cells; for IC50: 0-40 μM; for viability at 20 µM: 20 μM compound, normalized to 0.2% DMSO
Procedure, shortened: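 Cells were exposed to compound for 72 h, then resazurin reduction (CellTiter-Blue, 2 h) was read by fluorescence and converted to viable cell number via a standard curve. Viability was normalised to 0.2% DMSO-treated cells. IC50 came from a sigmoidal dose-response fit, three separate experiments.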

Structure (SMILES)	Kd ((His)6-SOX11-DBD protein) [µM]	IC50 (Jeko-1 (SOX11+); Homo sapiens, JeKo-1, 72 h) [µM]	viability at 20 µM (Jeko-1 (SOX11+); Homo sapiens, JeKo-1, 72 h) [%]	viability at 20 µM (Jeko-1 (SOX11+); Homo sapiens, 72 hours) [%]	IC50 (Jeko-1 (SOX11+); Homo sapiens, 72 hours) [µM]	IC50 (Jeko-1 (SOX11+); 72 hours) [µM]
CC1Oc2ccc(C(=O)Nc3ccc(S(=O)(=O)Nc4ccccc4)cc3)cc2NC1=O (stereo not drawn)	15.3	12	9.09	–	–	–
O=C(Nc1ccc(S(=O)(=O)Nc2ccccc2)cc1)c1ccc2cn[nH]c2c1	48.4	10	17.2	–	–	–
Cc1nc2cc(C(=O)Nc3ccc(S(=O)(=O)Nc4ccccc4)cc3)ccc2s1	21.2	12	16.6	–	–	–
O=C(Nc1ccc(S(=O)(=O)Nc2ccccc2)cc1)c1ccc2nc[nH]c2c1	230	> 20	93.6	–	–	–
CC1Sc2ccc(C(=O)Nc3ccc(S(=O)(=O)N4CCOCC4)cc3)cc2NC1=O (stereo not drawn)	137	11	18.9	–	–	–
CC1Sc2ccc(C(=O)Nc3ccc(S(=O)(=O)Nc4cccc(C(F)(F)F)c4)cc3)cc2NC1=O (stereo not drawn)	5.78	21	9.74	–	–	–
CC1Sc2ccc(C(=O)Nc3ccc(S(=O)(=O)Nc4ccc(Cl)cc4)cc3)cc2NC1=O (stereo not drawn)	0.861	15	9.99	–	–	–
Cc1ccc(NS(=O)(=O)c2ccc(NC(=O)c3ccc4c(c3)NC(=O)C(C)S4)cc2)cc1 (stereo not drawn)	12.4	10	0.51	–	–	–
Cc1ccccc1NS(=O)(=O)c1ccc(NC(=O)c2ccc3c(c2)NC(=O)C(C)S3)cc1 (stereo not drawn)	14.1	10	9.87	–	–	–
Cc1cccc(NS(=O)(=O)c2ccc(NC(=O)c3ccc4c(c3)NC(=O)C(C)S4)cc2)c1 (stereo not drawn)	1.16	11	0.58	–	–	–
CC1Sc2ccc(C(=O)Nc3ccc(S(=O)(=O)Nc4cccc(F)c4)cc3)cc2NC1=O (stereo not drawn)	1.26	< 20	28.2	–	–	–
CC1Sc2ccc(C(=O)Nc3ccc(S(=O)(=O)Nc4ccc(F)cc4)cc3)cc2NC1=O (stereo not drawn)	15.9	> 20	80.1	–	–	–
CC1Sc2ccc(C(=O)Nc3ccc(S(N)(=O)=O)cc3)cc2NC1=O (stereo not drawn)	83.3	> 20	101	–	–	–
CC1Sc2ccc(C(=O)Nc3ccc(S(C)(=O)=O)cc3)cc2NC1=O (stereo not drawn)	7.13	15	30.6	–	–	–
CC1Sc2ccc(C(=O)Nc3ccc(S(=O)(=O)N4CCCCC4)cc3)cc2NC1=O (stereo not drawn)	3.63	8	7.38	–	–	–
CC1Sc2ccc(C(=O)Nc3ccc(S(=O)(=O)N4CCCC4)cc3)cc2NC1=O (stereo not drawn)	138	8.5	2.97	–	–	–
CC1Sc2ccc(C(=O)Nc3ccc(S(=O)(=O)N(C)C)cc3)cc2NC1=O (stereo not drawn)	15.4	15	19.6	–	–	–
CCN(CC)S(=O)(=O)c1ccc(NC(=O)c2ccc3c(c2)NC(=O)C(C)S3)cc1 (stereo not drawn)	30.9	7.5	0.6	–	–	–
CC1Sc2ccc(C(=O)Nc3ccc(S(=O)(=O)Nc4ccccn4)cc3)cc2NC1=O (stereo not drawn)	130	> 20	96.4	–	–	–
CC1Sc2ccc(C(=O)Nc3ccc(S(=O)(=O)Nc4cccnc4)cc3)cc2NC1=O (stereo not drawn)	7.23	> 20	92	–	–	–
CC1Sc2ccc(C(=O)Nc3ccc(S(=O)(=O)NC4CC4)cc3)cc2NC1=O (stereo not drawn)	18.9	7	14.9	–	–	–
CC1Sc2ccc(C(=O)Nc3ccc(S(=O)(=O)N(C)C(C)C)cc3)cc2NC1=O (stereo not drawn)	38.9	8	0.92	–	–	–
CC(C)NS(=O)(=O)c1ccc(NC(=O)c2ccc3c(c2)NC(=O)C(C)S3)cc1 (stereo not drawn)	9.79	8	20.3	–	–	–
CC1Sc2ccc(C(=O)Nc3ccc(S(=O)(=O)N4CCCCCC4)cc3)cc2NC1=O (stereo not drawn)	2.63	7.5	0.46	–	–	–

Structure (SMILES)	Kd ((His)6-SOX11-DBD protein) [µM]	IC50 (Jeko-1 (SOX11+); Homo sapiens, JeKo-1, 72 h) [µM]	viability at 20 µM (Jeko-1 (SOX11+); Homo sapiens, JeKo-1, 72 h) [%]	viability at 20 µM (Jeko-1 (SOX11+); Homo sapiens, 72 hours) [%]	IC50 (Jeko-1 (SOX11+); Homo sapiens, 72 hours) [µM]	IC50 (Jeko-1 (SOX11+); 72 hours) [µM]
CC1Sc2ccc(C(=O)Nc3cccc(S(=O)(=O)Nc4ccccc4)c3)cc2NC1=O (stereo not drawn)	18.6	10	2.81	–	–	–
CC1Sc2ccc(C(=O)Nc3cccc(S(=O)(=O)N4CCCCC4)c3)cc2NC1=O (stereo not drawn)	41.5	10	0.6	–	–	–
CC1Sc2ccc(C(=O)Nc3cccc(S(=O)(=O)N(C)C)c3)cc2NC1=O (stereo not drawn)	69.5	8.5	1.43	–	–	–
CCN(CC)S(=O)(=O)c1cccc(NC(=O)c2ccc3c(c2)NC(=O)C(C)S3)c1 (stereo not drawn)	31.2	8	0.44	–	–	–
CC1Sc2ccc(C(=O)Nc3ncc(S(=O)(=O)Nc4ccccc4)s3)cc2NC1=O (stereo not drawn)	3.12	> 20	88	–	–	–
CC1Sc2ccc(C(=O)Nc3ccc(S(=O)(=O)Nc4ccccc4)c(Cl)c3)cc2NC1=O (stereo not drawn)	4.36	5	1.8	–	–	–
CC1Sc2ccc(C(=O)Nc3ccc(S(=O)(=O)Nc4ccccc4)cc3Cl)cc2NC1=O (stereo not drawn)	3.1	< 20	36.2	–	–	–
CC1Sc2ccc(C(=O)Nc3ccc(CNc4ccccc4)cc3)cc2NC1=O (stereo not drawn)	0.258	–	108	–	–	–
Cc1cccc(NCc2ccc(NC(=O)c3ccc4c(c3)NC(=O)C(C)S4)cc2)c1 (stereo not drawn)	8.16	–	79	–	–	–
C[C@@H]1Sc2ccc(C(=O)Nc3ccc(S(=O)(=O)Nc4ccccc4)cc3)cc2NC1=O	31.9	12.5	12.8	–	–	–
CC1Sc2ccc(C(=O)Nc3cccc(CNc4ccc(OS(=O)(=O)F)cc4)c3)cc2NC1=O (stereo not drawn)	3.53	–	–	4.81	10	–
O=C(CCc1c[nH]cn1)Nc1cccc(C(=O)Nc2ccc(S(=O)(=O)Nc3ccccc3)cc2)c1	6.46	> 20	90.7	–	–	–
CC1Sc2ccc(C(=O)Nc3cccc(CNc4cccc(S(=O)(=O)F)c4)c3)cc2NC1=O (stereo not drawn)	1.9	–	–	44.3	19	–
CC1Sc2ccc(C(=O)Nc3ccc(CNc4cccc(S(=O)(=O)F)c4)cc3)cc2NC1=O (stereo not drawn)	1.65	–	–	–	–	16
Nc1ccccc1CC(=O)Nc1cccc(C(=O)Nc2ccc(S(=O)(=O)Nc3ccccc3)cc2)c1	0.805	11	9.92	–	–	–
O=C(Nc1cccc(OCc2ccccc2)c1)c1ccc2snnc2c1	9.61	> 20	98.1	–	–	–
O=C(Nc1ccc(OCc2ccccc2)cc1)c1ccc2snnc2c1	1.65	> 20	93.6	–	–	–
CN(c1ccccc1)S(=O)(=O)c1cccc(NC(=O)c2ccc3snnc3c2)c1	8.33	10	10.6	–	–	–
CCN(c1ccccc1)S(=O)(=O)c1cccc(NC(=O)c2ccc3snnc3c2)c1	2.65	8.5	4.86	–	–	–
CCCN1C(=O)CSc2ccc(C(=O)Nc3ccc(S(=O)(=O)N4CCCCC4)cc3)cc21	5.87	17	39.9	–	–	–
CN(c1ccccc1)S(=O)(=O)c1ccc(NC(=O)c2ccc3nncn3c2)cc1	4.07	> 20	126	–	–	–
O=C(Nc1ccc2cccnc2c1)c1ccc(OCc2ccccc2)cc1	3.58	8	22.8	–	–	–
CN1C(=O)COc2ccc(C(=O)Nc3ccc(S(=O)(=O)N4CCCCC4)cc3)cc21	5.35	> 20	90.6	–	–	–
CN1C(=O)CSc2ccc(C(=O)Nc3ccc(CN4CCCCCC4)cc3)cc21	6.93	> 20	102	–	–	–
